SMILES strings stand for the structures. Where a SMILES comes first, the peptide text is derived from it.

The text below walks through data of EP4671261A1, “NOVEL PEPTIDE EXHIBITING SKIN CONDITION IMPROVEMENT ACTIVITY AND COSMETIC COMPOSITION CONTAINING SAME” (Daebong LS Co., Ltd., priority 2023, dated 2024).

The subject of one data set is NHDF cells. In words: Procollagen Type I Peptide (PIP) production, EIA of culture supernatant. In kind it is cell-based, Human. The note with it: 10 µg/mL (positive control), untreated group = 100. As for the experimental part:
Normal Human Dermal Fibroblasts (NHDF) were obtained from Lonza (Lonza Walkersville, Inc.) and cultured in FBM (Fibroblast Basal Medium) supplemented with 0.1% hFGF-B, insulin, GA-1000, and 2% FBS at 37°C in a 5% CO2 incubator. Subculture was performed every 2 to 3 days.
NHDF cells were seeded at 2.0 × 10^4 cells/well in a 24-well plate and incubated for 24 hours at 37°C in a 5% CO2 incubator. After incubation, the culture medium was replaced with serum-free FBM, and the peptide prepared in the above Example was applied at concentrations of 1-100 µM, followed by incubation for 24 hours. The supernatant from each experimental group was collected, and the amount of procollagen released into the medium was measured. The positive control group was treated with ascorbic acid at a concentration of 0.001 v/v%. Measurement of procollagen levels was performed using a Procollagen Type I Peptide (PIP) EIA Kit (Takara Biomedical Co.) according to the manufacturer's protocol. The quantitative results of procollagen type I peptide production following treatment with the peptide of the Example are shown in Table 3 and Fig. 4.

The subject of data set [1] is RAW264.7 cells. Nature of the data set: Inhibition of nitric oxide (NO) production, Griess reagent, LPS-stimulated macrophages. As to conditions: 10 µM (positive control), LPS (1µg/ml), relative to LPS control = 100. Type of data set: cell-based. As for the experimental part:
(§1) RAW264.7 macrophage cells were obtained from the American Type Culture Collection (ATCC) and cultured in Dulbecco's Modified Eagle's Medium (DMEM) containing 100 units/mL penicillin-streptomycin and 10% (v/v) fetal bovine serum (FBS) at 37°C in a 5% CO2 incubator, and subculture was performed every 2 to 3 days.
RAW264.7 cells were seeded at 1.5 × 10^5 cells/well in a 24-well plate and incubated for 18 hours at 37°C in a 5% CO2 incubator. The cells were then treated with the peptide prepared in the above Example at concentrations of 50-200 µM and incubated for 24 hours. From each experimental group, 100 µL of the supernatant was collected into a 96-well plate, and 100 µL of griess reagent was added. The mixture was allowed to react at room temperature for 10 minutes, and absorbance was measured at 540 nm using a microplate reader. […] The relative levels of NO production following the treatments described in the above Example, based on NO production induced by the stimulant (LPS), are shown in Table 1 and Figure 2 below.
Background: Nitrite, measured by Griess reagent, commonly stands in for NO production.

Data set [2] concerns RAW264.7 cells. Nature of the data set: EZ-cytox cell viability assay in macrophages. As to conditions: 10 µM (positive control), LPS (1µg/ml). Type of data set: cell-based. As for the experimental part:
as §1
(§2) The EZ-cytox assay is a representative method for measuring cell viability using the principle that water-soluble tetrazolium salts (WSTs) react with dehydrogenases of viable cells to produce a water-soluble orange formazan.
(§3) To evaluate cytotoxicity, RAW264.7 cells were seeded at 1.5 × 10^4 cells/well in a 96-well plate using DMEM supplemented with 10% FBS and incubated for 18 hours at 37°C in a 5% CO2 incubator. The test samples were then applied to the cultured cells. After treatment, EZ-cytox was added to each well and incubated for 30 minutes under the same conditions. Absorbance was measured at 450 nm using a microplate reader. The mean absorbance values of each sample group were compared with the control group to determine cell viability.

Data set [3] in a line: EZ-cytox cell viability assay in macrophages. In kind it is cell-based. The note with it: mouse, RAW264.7 macrophage cells, LPS (1µg/ml). As to the method: as §1, §2, §3
The subject of a further data set is HaCaT cells. Nature of the data set: Hyaluronic acid (HA) production, ELISA of culture supernatant. In kind it is cell-based, human. The note with it: 10 mM (positive control), untreated group = 100. As to the method:
The HaCaT human keratinocyte cell line was obtained from Cell Line Service GmbH (Germany). The cells were cultured in DMEM containing 1% penicillin-streptomycin and 10% fetal bovine serum (FBS) at 37°C in a 5% CO2 incubator, and subculture was performed every 2 to 3 days.
HaCaT cells were seeded at 1.0 × 10^5 cells/well in a 24-well plate and incubated for 24 hours at 37°C in a 5% CO2 incubator. After incubation, the culture medium was replaced with serum-free DMEM, and the peptide prepared in the above Example was applied at concentrations of 50-200 µM, followed by incubation for 24 hours. The supernatant from each experimental group was collected, and the amount of hyaluronic acid (HA) released into the medium was measured. The positive control group was treated with N-acetylglucosamine at a concentration of 10 mM. Measurement of hyaluronic acid production was conducted using a Hyaluronic Acid ELISA Kit (Cusabio Biotechnology Co., Ltd.) following the manufacturer's protocol.

Turning to `O=C1O[C@H]([C@@H](O)CO)C(O)=C1O` [Asc.A, ascorbic acid], the “Procollagen production (%)” value in the data set with NHDF cells is given as 175.82±3.91%.
Turning to `Cc1ccnc(N)c1` [Example 2-AM, 2-amino-4-methylpyridine], the “NO Production (%)” value in the data set with RAW264.7 cells [1] is listed as 10.23±0.55%. For the same molecule, the “Cell viability (%)” value in the data set on RAW264.7 cells [2] worked out at 94.12±1.76%.
In data set [3] (50 µM), `N[C@@H](Cc1ccc(O)cc1)C(=O)NCC(=O)N[C@@H](CO)C(=O)N[C@@H](CC(=O)O)C(=O)O` [Example, YGSD (Tyr-Gly-Ser-Asp)] (H-YGSD-OH) had a viability at 50 µM of 98.1 ± 1.81%. In data set [3] (100 µM), this molecule gave a viability at 100 µM of 99.4 ± 2.02%. This molecule returned a viability at 200 µM in data set [3] (200 µM) of 99.53 ± 0.95%.
Consider `CC(=O)N[C@H]1C(O)O[C@H](CO)[C@@H](O)[C@@H]1O` (stereo partly shown) [NAG, N-acetylglucosamine], for which, in the data set on HaCaT cells, the “Hyaluronic acid production (%)” value was found to be 121.43±10.37%.

One may read the viability as a read-out of living cells in per cent, often relative to untreated cells.
